Experimental data as given in US20160324875A1, “CUTANEOUS COMPOSITION COMPRISING VITAMIN D ANALOGUE AND A MIXTURE OF SOLVENT AND SURFACTANTS” (LEO PHARMA A/S, priority 2009, published 2016).
Entries after “also recorded” stand apart in the source; their conditions may differ.

Key:
IL-la = test: release of IL-1a from calcipotriol ointment containing glycerol; settings: 5%, 10%, 15% by weight of glycerol in a calcipotriol ointment
[1] = test system: gene encoding cathelicidin; test: induction of the gene encoding cathelicidin in reconstructed human epidermis (qPCR); assay type: cell-based; settings: glycerol 5% vs 10% or 15% by weight in calcipotriol composition
Text: In psoriasis, the level of cathelicidin is increased in lesional skin of psoriasis patients. […] This finding has been utilized to develop an assay in which the uptake and biological activity of calcipotriol in human keratinocytes from the tested compositions has been determined by measuring the level of induction of the gene encoding cathelicidin.
In the assay, composition 1A prepared as described in Example 1 above was applied topically in triplicate on reconstructed human epidermis consisting of normal human keratinocytes cultured for 12 days on 0.5 cm^2 polycarbonate filters (available from SkinEthic® Laboratories, Nice, France) in an amount of […]. The tissue was treated for two days followed by separation of the epidermis from the polycarbonate filter and snap-frozen in liquid nitrogen. RNA was extracted from the cells and cDNA synthesized by conventional procedures. Quantitative real-time PCR (qPCR) was then performed using the following assays from Applied Biosystems: CAMP Hs0018038_ml and GAPDH Hs99999905_ml. The expression levels of cathelicidin were normalized to GAPDH and a relative quantification was made by comparison with Daivonex® ointment.

[2] = skin diffusion experiment (Franz diffusion cells); assay type: in vitro ADME, pig; settings: from a composition of the invention, 4 mg/cm^2, 21 hours, FIG. 3, % of applied dose
Protocol: To investigate the skin penetration and permeation of calcipotriol from compositions of the invention, a skin diffusion experiment was conducted. Full thickness skin from pig ears was used in the study. The ears were kept frozen at -18° C. before use. On the day prior to the experiment the ears were placed in a refrigerator (5±3° C.) for slow defrosting. On the day of the experiment, the hairs were removed using a veterinary hair trimmer. The skin was cleaned for subcutaneous fat using a scalpel and two pieces of skin were cut from each ear and mounted on Franz diffusion cells in a balanced order.
Static Franz-type diffusion cells with an available diffusion area of 3.14 cm^2 and receptor volumes ranging from 8.6 to 11.1 ml were used in substantially the manner described by T. J. Franz, “The finite dose technique as a valid in vitro model for the study of percutaneous absorption in man”, in Current Problems in Dermatology, 1978, J. W. H. Mall (Ed.), Karger, Basel, pp. 58-68. The specific volume was measured and registered for each cell. A magnetic bar was placed in the receptor compartment of each cell. […]
The in vitro skin permeation of each test composition was tested in 6 replicates (i.e. n=6). […] A glass spatula was used for the application, and the residual amount of the composition was determined so as to give the amount of the composition actually applied on the skin. […]

[3] = one study, Hannuksela et al. 1975; cited from earlier work

OCC(O)CO [glycerol]
release of IL-la (IL-la): reduce the release of IL-la in a dose-dependent manner
expression of cathelicidin [1]: increased with a low amount of glycerol

C=C1/C(=C\C=C2/CCC[C@]3(C)[C@@H]([C@H](C)/C=C/[C@@H](O)C4CC4)CC[C@@H]23)C[C@@H](O)C[C@@H]1O [calcipotriol, Calcipotriol]
calcipotriol penetrated into viable layers of the skin (dermis and epidermis) [2]: a significant amount
calcipotriol permeated through the skin into the receptor fluid [2]: Very little; also recorded: only a minor amount

CC(O)CO (centres unmarked) [propylene glycol]
number of irritant reactions [3]: 12.5%
